Assay [1] addresses T1, Porcine cholesterol esterase (Sus scrofa, UniProt A0A286ZKB1).
T1 sequence (A0A286ZKB1 1-682): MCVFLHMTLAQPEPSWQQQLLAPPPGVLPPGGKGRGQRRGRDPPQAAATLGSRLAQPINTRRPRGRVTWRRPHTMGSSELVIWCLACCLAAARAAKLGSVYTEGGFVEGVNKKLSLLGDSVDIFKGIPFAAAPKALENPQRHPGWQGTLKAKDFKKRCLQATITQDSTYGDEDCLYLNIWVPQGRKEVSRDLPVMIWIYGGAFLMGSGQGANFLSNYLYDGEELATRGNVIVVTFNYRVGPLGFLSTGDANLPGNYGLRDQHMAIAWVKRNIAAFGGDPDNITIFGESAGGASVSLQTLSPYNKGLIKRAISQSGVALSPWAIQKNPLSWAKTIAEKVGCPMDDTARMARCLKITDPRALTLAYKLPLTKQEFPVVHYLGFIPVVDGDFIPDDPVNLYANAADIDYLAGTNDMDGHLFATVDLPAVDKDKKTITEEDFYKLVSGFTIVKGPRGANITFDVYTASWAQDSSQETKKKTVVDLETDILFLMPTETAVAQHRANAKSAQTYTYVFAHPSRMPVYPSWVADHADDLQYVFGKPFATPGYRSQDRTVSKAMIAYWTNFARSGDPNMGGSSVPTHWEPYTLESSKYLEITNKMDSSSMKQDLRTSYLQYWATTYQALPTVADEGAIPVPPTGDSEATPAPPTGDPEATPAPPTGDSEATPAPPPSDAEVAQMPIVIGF
Briefly: CE inhibitory activity assay (spectrophotometry). The class given is biochemical. The following applies: for comparative inhibitory activity on CE (in words): authors' ranking, for KQ7 partly integrating molecular dynamics; for concentration dependence of CE inhibition rate: 0.2–1.0 mg/mL; for CE inhibition rate vs control group: all concentrations, p < 0.05. On the procedure:
(§1) Porcine cholesterol esterase and the ELISA kit were provided by Jiangsu JINGMEI Biotechnology Co., Ltd. (Yancheng, China).
(§2) In the formula, ODs: is the absorbance value of the sample group; ODsb: is the absorbance value of the sample blank group; ODc: is the absorbance value of the control group; and ODb: is the absorbance value of the blank group.
(§3) Each experimental sample was tested in triplicate, and the data were processed using IBM SPSS Statistics 26 software. Figures were generated using Origin 2018 and GraphPad Prism 8.0.2 software.

The target of assay [2] is T1, Porcine cholesterol esterase. Briefly: CE inhibitory activity after simulated gastrointestinal digestion (pepsin, trypsin). The class given is biochemical. The following applies: for CE inhibition after digestion (in words): after simulated gastrointestinal digestion; for change of CE inhibition on digestion (in words): simulated gastrointestinal digestion, KQ7, QP13, VN10 at 60 min, RK7 within 120 min.
From the text: as §1, §2
We dissolved the synthesized peptide aqueous solution in pepsin (enzyme: substrate 1:50 w/w) and adjusted the pH to 2 using 1 mol/L HCl. Then, we hydrolyzed this at 37 °C for 90 min, then adjusted the pH to 7.5 with 1 mol/L NaOH solution and added trypsin (enzyme: substrate 1:50 w/w). Next, we hydrolyzed this at 37 °C for 180 min in a constant temperature water bath. Subsequently, we inactivated this by boiling it in a 95 °C water bath for 10 min. Finally, we took samples every 30 min and stored each sample at −20 °C for later analysis.
The determination of CE activity refers to Section 2.3.5.
as §3

The conditions of assay [3]: peptide isolated from soybean glycinin; ref [26]; cited from earlier work. From the text: These carbon–hydrogen bonds may have stabilized the QP13–CE complex to some extent, complementing the hydrogen bonds. It formed π–Alkyl bonds with Ile426, Phe119, Ala117, Leu69, and Leu124 through hydrophobic interactions. QP13 also interacted with Asp434, Lys445, Asn118, Met424, Ile426, Tyr75, Thr68, Tyr427, Tyr123, Leu69, Gln440, Asn112, Phe119, and Arg63 through van der Waals f ...

“Also recorded” adds a separate entry of the source. Where no end group is shown, it is not given here.

Take `CC(C)c1c(C(=O)Nc2ccccc2)c(-c2ccccc2)c(-c2ccc(F)cc2)n1CC[C@@H](O)C[C@@H](O)CC(=O)O` [Atorvastatin, reference compound]: the “comparative inhibitory activity on CE (in words)” value in assay [1] is “strongest inhibitory effect on CE”. Also, the IC50 (as a rule, the concentration needed to halve the response being measured) in assay [1] (from inhibition curve, spectrophotometry, triplicate) was 854 µM.
With “KVLPVPQ [KQ7, Lys-Val-Leu-Pro-Val-Pro-Gln]”, in assay [2], the “CE inhibition after digestion (in words)” value is on record as “effective in inhibiting CE after simulated gastrointestinal digestion” and the “change of CE inhibition on digestion (in words)” value (shortened to “change of CE inhibition”) was “significant increase in the inhibitory activity; also recorded: significant increase in CE inhibition activity at 60 min during digestion (p < 0.05); also recorded: significantly enhanced after simulated gastrointestinal digestion”. Moreover, in assay [1], the “concentration dependence of CE inhibition rate” value is recorded as “increased with the increase of peptide mass concentration”, the “CE inhibition rate vs control group” value is given as “significantly higher than those of the control group at all concentrations (p < 0.05)” and the “comparative inhibitory activity on CE (in words)” value was “highest inhibitory activity on CE; also recorded: higher inhibitory activity against CE compared to RK7; also recorded: highest inhibitory activity against CE”.
Regarding Leu–Pro–Tyr–Pro, the cholesterol effect entry in assay [3] was “demonstrated low cholesterol effects”.
As to QEPVLGPVRGPFP [QP13], in assay [2], the “CE inhibition after digestion (in words)” value was “effective in inhibiting CE after simulated gastrointestinal digestion” and the “change of CE inhibition” value is reported as “significant increases in inhibition activity (p < 0.05)”. Moreover, in assay [1], the “concentration dependence of CE inhibition rate” value was “increased with the increase of peptide mass concentration” and the “CE inhibition rate vs control group” value is on record as “significantly higher than those of the control group at all concentrations (p < 0.05)”.
On to “RPKHPIK [RK7, Arg-Pro-Lys-His-Pro-Ile-Lys]”, for which, in assay [2], the “CE inhibition after digestion (in words)” value was “effective in inhibiting CE after simulated gastrointestinal digestion” and the “change of CE inhibition” value was “significant increase in the inhibitory activity; also recorded: significant changes observed (p < 0.05); also recorded: significantly enhanced after simulated gastrointestinal digestion”. Besides, in assay [1], the “concentration dependence of CE inhibition rate” value is listed as “increased with the increase of peptide mass concentration” and the “CE inhibition rate vs control group” value was “significantly higher than those of the control group at all concentrations (p < 0.05)”.
For VYPFPGPIPN [VN10] the same measures were “effective in inhibiting CE after simulated gastrointestinal digestion”, “significant increases in inhibition activity (p < 0.05)”, “increased with the increase of peptide mass concentration” and “significantly higher than those of the control group at all concentrations (p < 0.05)”.

(Values after paper PMC11431439, “Study on the Inhibitory Effect of Bioactive Peptides Derived from Yak Milk Cheese on Cholesterol Esterase” (Foods, 2024).)
